Read-outs that look alike come from different tables or passages of the source.
Columns and labels:
[1] = test system: cellular H3K36me2 level in multiple myeloma cell line KMS11 (t(4;14)+); assay: H3K36me2 cellular ELISA assay in KMS11-Par line; assay type: cell-based; conditions: Homo sapiens, KMS-11, ELISA, read-out: H3K36me2 ELISA in KMS11-Par
Procedure, shortened: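 After 72 h compound exposure, HCl-extracted histones from KMS11 (t(4;14)+) cells were probed by ELISA for H3K36me2 against total H3 with a chemiluminescence read-out. Cells were plated at 1,250/well in Opti-MEM plus B-27 and N2 the day before. A parallel CellTiter-Glo plate tracked viability.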

[2] = test system: cellular H3K36me2 level in thyroid carcinoma cell line CGTH-W-1 (NSD2 E1099K); assay: H3K36me2 cellular ELISA assay in CGTH-W-1 line; assay type: cell-based; conditions: Homo sapiens, CGTH-W-1, 72 h, read-out: H3K36me2 ELISA in CGTH-W-1
Procedure, shortened: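 After 72 h compound treatment of NSD2 E1099K-mutant CGTH-W-1 cells, H3K36me2 and total H3 were quantified by ELISA with chemiluminescent read-out. A parallel-seeded plate gave cell viability by CellTiter-Glo.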

NSD2 [1-1365] = NSD2 [1-1365] (Homo sapiens (Human), UniProt O96028); assay: LC-MS/MS-based NSD2 enzymatic assay (SAH production); assay type: biochemical; conditions: read-out: NSD2 IC50
Chain of NSD2 [1-1365] (O96028 whole entry): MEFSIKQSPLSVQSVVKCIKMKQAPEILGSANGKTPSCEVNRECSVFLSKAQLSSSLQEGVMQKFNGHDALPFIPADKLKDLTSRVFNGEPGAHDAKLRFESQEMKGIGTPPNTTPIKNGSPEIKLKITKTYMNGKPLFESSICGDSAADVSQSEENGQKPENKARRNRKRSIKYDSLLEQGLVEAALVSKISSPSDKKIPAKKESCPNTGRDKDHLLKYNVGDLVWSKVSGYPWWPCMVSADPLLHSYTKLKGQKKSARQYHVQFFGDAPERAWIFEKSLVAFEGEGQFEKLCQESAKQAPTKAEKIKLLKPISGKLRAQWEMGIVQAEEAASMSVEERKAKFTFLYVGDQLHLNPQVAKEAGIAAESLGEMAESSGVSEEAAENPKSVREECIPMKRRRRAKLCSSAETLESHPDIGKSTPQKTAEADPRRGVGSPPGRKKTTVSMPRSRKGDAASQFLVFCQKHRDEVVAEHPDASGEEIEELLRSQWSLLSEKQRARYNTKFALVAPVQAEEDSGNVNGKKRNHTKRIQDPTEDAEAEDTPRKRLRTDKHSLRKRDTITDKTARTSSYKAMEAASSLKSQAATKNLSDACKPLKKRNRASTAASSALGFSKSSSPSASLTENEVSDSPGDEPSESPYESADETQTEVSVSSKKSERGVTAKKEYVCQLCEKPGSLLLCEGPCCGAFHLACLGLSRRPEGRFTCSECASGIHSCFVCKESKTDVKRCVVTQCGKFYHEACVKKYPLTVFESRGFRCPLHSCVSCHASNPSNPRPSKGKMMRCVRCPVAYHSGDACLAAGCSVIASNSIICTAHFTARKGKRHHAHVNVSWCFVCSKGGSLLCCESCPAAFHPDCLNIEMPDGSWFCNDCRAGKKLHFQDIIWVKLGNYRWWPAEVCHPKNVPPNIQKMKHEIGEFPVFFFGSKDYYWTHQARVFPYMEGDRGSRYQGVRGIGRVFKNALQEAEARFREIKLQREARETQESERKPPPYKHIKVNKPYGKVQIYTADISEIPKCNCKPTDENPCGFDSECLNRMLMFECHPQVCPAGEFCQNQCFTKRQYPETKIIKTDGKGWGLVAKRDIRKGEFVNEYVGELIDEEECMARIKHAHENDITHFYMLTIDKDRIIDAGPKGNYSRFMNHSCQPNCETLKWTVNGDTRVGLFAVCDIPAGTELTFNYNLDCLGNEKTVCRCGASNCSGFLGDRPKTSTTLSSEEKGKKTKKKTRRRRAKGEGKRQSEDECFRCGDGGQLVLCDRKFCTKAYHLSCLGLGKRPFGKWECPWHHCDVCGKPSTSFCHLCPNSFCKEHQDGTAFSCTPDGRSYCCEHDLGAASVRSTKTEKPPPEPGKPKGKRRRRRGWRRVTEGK
Procedure, shortened: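 SAH formed was measured by LC-MS/MS using d4-SAH as internal standard and an SAH calibration curve. Compounds were preincubated 20 min with NSD2 [1-1365] and SAM; mouse-liver nucleosome then started a 90 min room-temperature reaction (8 nM enzyme, 1 μM SAM, 400 nM nucleosome final, pH 8.0), stopped with TFA.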

[3] = KMS11-Par line (t(4;14)+), 72 hours treatment
[4] = NSD2 biochemical activity, class symbols

CC[C@@H](C)C(=O)[C@@]1(N)CCCN(c2cnc(-c3ccc(F)c(F)c3)cc2Cn2cnc3c(N)ncnc32)C1 [Example 102, (R)-1-((R)-3-amino-1-(4-((6-amino-9H-purin-9-yl)methyl)-6-(3,4-difluorophenyl)pyridin-3-yl)piperidin-3-yl)-2-methylbutan-1-one]
IC50 [1, 3]: 252 nM | IC50 [2]: 60 nM | IC50 (NSD2 [1-1365]; [4]): 10 to 1000 nM

COc1cnc(-c2cc(Cn3cnc4c(N)ncnc43)c(N3CCC[C@](N)(c4cccc(Cl)n4)C3)cn2)cc1F [Example 243, (R)-9-((5-(3-amino-3-(6-chloropyridin-2-yl)piperidin-1-yl)-4′-fluoro-5′-methoxy-[2,2′-bipyridin]-4-yl)methyl)-9H-purin-6-amine]
IC50 ([1]; KMS11-Par line, 72 hours): 2440 nM | IC50 [2]: 541 nM | IC50 (NSD2 [1-1365]): 1 to 10 nM

Nc1ncnc2c1ncn2Cc1cc(-c2ccc(F)c(F)c2)ncc1N1CCCC(N)(C(=O)C2CCC2)C1 (stereo not drawn) [Example 105, (3-amino-1-(4-((6-amino-9H-purin-9-yl)methyl)-6-(3,4-difluorophenyl)pyridin-3-yl)piperidin-3-yl)(cyclobutyl)methanone]
IC50 [1, 3]: 140 nM | IC50 [2]: 67 nM | IC50 (NSD2 [1-1365]; [4]): 10 to 1000 nM

Nc1ncnc2c1ncn2Cc1cc(-c2ccc(F)c(F)c2)ncc1N1CCCC(N)(C(=O)NC2CCOC2)C1 (stereo not drawn) [Example 85, 3-amino-1-(4-((6-amino-9H-purin-9-yl)methyl)-6-(3,4-difluorophenyl)pyridin-3-yl)-N-(tetrahydrofuran-3-yl)piperidine-3-carboxamide]
IC50 [1, 3]: 6490 nM | IC50 [2]: 2080 nM | IC50 (NSD2 [1-1365]; [4]): 10 to 1000 nM

Cc1cc(C(F)F)ccc1-c1cc(Cn2cnc3c(N)ncnc32)c(N2CCC[C@](N)([C@@H](O)C(F)F)C2)cn1 [Example 115, (R)-1-((R)-3-amino-1-(4-((6-amino-9H-purin-9-yl)methyl)-6-(4-(difluoromethyl)-2-methylphenyl)pyridin-3-yl)piperidin-3-yl)-2,2-difluoroethan-1-ol]
IC50 [1, 3]: 927 nM | IC50 [2]: 88 nM | IC50 (NSD2 [1-1365]; [4]): 1 to 10 nM

CCc1nccc([C@@]2(N)CCCN(c3cnc(-c4ccc(F)c(F)c4)cc3Cn3cnc4c(N)ncnc43)C2)n1 [Example 251, (R)-9-((5-(3-amino-3-(2-ethylpyrimidin-4-yl)piperidin-1-yl)-2-(3,4-difluorophenyl)pyridin-4-yl)methyl)-9H-purin-6-amine]
IC50 ([1]; KMS11-Par line, 72 hours): 1520 nM | IC50 [2]: 440 nM | IC50 (NSD2 [1-1365]): 10 to 1000 nM

COc1ccc(-c2cc(Cn3cnc4c(N)ncnc43)c(N3CCC[C@](N)([C@H](C)O)C3)cn2)cc1F [Example 92, (S)-1-((R)-3-amino-1-(4-((6-amino-9H-purin-9-yl)methyl)-6-(3-fluoro-4-methoxyphenyl)pyridin-3-yl)piperidin-3-yl)ethan-1-ol]
IC50 [1, 3]: 4890 nM | IC50 [2]: 2110 nM | IC50 (NSD2 [1-1365]; [4]): 1 to 10 nM

COc1c(F)cc(-c2cc(Cn3cnc4c(N)ncnc43)c(N3CCC[C@](N)(C(O)C(F)F)C3)cn2)cc1F (stereo in doubt) [Example 165, (S)-1-((R)-3-amino-1-(4-((6-amino-9H-purin-9-yl)methyl)-6-(3,5-difluoro-4-methoxyphenyl)pyridin-3-yl)piperidin-3-yl)-2,2-difluoroethan-1-ol]
IC50 [1, 3]: 1080 nM | IC50 [2]: 218 nM | IC50 (NSD2 [1-1365]; [4]): 1 to 10 nM

COc1ccc(-c2cc(Cn3cnc4c(N)ncnc43)c(N3CCC[C@](N)([C@@H](O)C(F)F)C3)cn2)cc1F [Example 131, (R)-1-((R)-3-amino-1-(4-((6-amino-9H-purin-9-yl)methyl)-6-(3-fluoro-4-methoxyphenyl)pyridin-3-yl)piperidin-3-yl)-2,2-difluoroethan-1-ol]
IC50 [1, 3]: 887 nM | IC50 [2]: 142 nM | IC50 (NSD2 [1-1365]; [4]): 1 to 10 nM

Nc1ncnc2c1ncn2Cc1cc(-c2cc(F)c(O)cc2F)ncc1N1CCC[C@](N)([C@H](O)C(F)F)C1 [Example 144, 4-(5-((R)-3-amino-3-((S)-2,2-difluoro-1-hydroxyethyl)piperidin-1-yl)-4-((6-amino-9H-purin-9-yl)methyl)pyridin-2-yl)-2,5-difluorophenol]
IC50 [1, 3]: 10400 nM | IC50 [2]: 2580 nM | IC50 (NSD2 [1-1365]; [4]): 10 to 1000 nM

Cc1cc([C@@]2(N)CCCN(c3cnc(-c4ccc(F)c(F)c4)cc3Cn3cnc4c(N)ncnc43)C2)no1 [Example 284, (R)-9-((5-(3-amino-3-(5-methylisoxazol-3-yl)piperidin-1-yl)-2-(3,4-difluorophenyl)pyridin-4-yl)methyl)-9H-purin-6-amine]
IC50 ([1]; KMS11-Par line, 72 hours): 254 nM | IC50 [2]: 111 nM | IC50 (NSD2 [1-1365]): 1 to 10 nM

CC(C)C(C)C(=O)C1(N)CCCN(c2cnc(-c3ccc(F)c(F)c3)cc2Cn2cnc3c(N)ncnc32)C1 (stereo not drawn) [Example 89, 1-(3-amino-1-(4-((6-amino-9H-purin-9-yl)methyl)-6-(3,4-difluorophenyl)pyridin-3-yl)piperidin-3-yl)-2,3-dimethylbutan-1-one]
IC50 [1, 3]: 684 nM | IC50 [2]: 245 nM | IC50 (NSD2 [1-1365]; [4]): 10 to 1000 nM

Cc1ccc(-c2cc(Cn3cnc4c(N)ncnc43)c(N3CCCC(N)(c4cccc(Cl)n4)C3)cn2)cn1 (stereo not drawn) [Example 229, 9-((5-(3-amino-3-(6-chloropyridin-2-yl)piperidin-1-yl)-6′-methyl-[2,3′-bipyridin]-4-yl)methyl)-9H-purin-6-amine]
IC50 ([1]; KMS11-Par line, 72 hours): 7490 nM | IC50 [2]: 1970 nM | IC50 (NSD2 [1-1365]): 10 to 1000 nM

COc1ncc(-c2cc(Cn3cnc4c(N)ncnc43)c(N3CCC[C@](N)(c4cccc(Cl)n4)C3)cn2)cc1F [Example 231, (R)-9-((5-(3-amino-3-(6-chloropyridin-2-yl)piperidin-1-yl)-5′-fluoro-6′-methoxy-[2,3′-bipyridin]-4-yl)methyl)-9H-purin-6-amine]
IC50 ([1]; KMS11-Par line, 72 hours): 7440 nM | IC50 [2]: 2150 nM | IC50 (NSD2 [1-1365]): 10 to 1000 nM

Nc1ncnc2c1ncn2Cc1cc(-c2ccc(F)cc2)ncc1N1CCCC(N)(c2ccc(F)c(CF)n2)C1 (stereo not drawn) [Example 193, 9-((5-(3-amino-3-(5-fluoro-6-(fluoromethyl)pyridin-2-yl)piperidin-1-yl)-2-(4-fluorophenyl)pyridin-4-yl)methyl)-9H-purin-6-amine]
IC50 ([1]; KMS11-Par line, 72 hours): 1850 nM | IC50 [2]: 876 nM | IC50 (NSD2 [1-1365]): 10 to 1000 nM

Nc1ncnc2c1ncn2Cc1cc(-c2ccc(F)cc2C(F)F)ncc1N1CCC[C@](N)([C@@H](O)C(F)F)C1 [Example 158, (R)-1-((R)-3-amino-1-(4-((6-amino-9H-purin-9-yl)methyl)-6-(2-(difluoromethyl)-4-fluorophenyl)pyridin-3-yl)piperidin-3-yl)-2,2-difluoroethan-1-ol]
IC50 [1, 3]: 802 nM | IC50 [2]: 100 nM | IC50 (NSD2 [1-1365]; [4]): 1 to 10 nM

COC1CCC(C(=O)C2(N)CCCN(c3cnc(-c4ccc(F)c(F)c4)cc3Cn3cnc4c(N)ncnc43)C2)C1 (stereo not drawn) [Example 106, (3-amino-1-(4-((6-amino-9H-purin-9-yl)methyl)-6-(3,4-difluorophenyl)pyridin-3-yl)piperidin-3-yl)(3-methoxycyclopentyl)methanone]
IC50 [1, 3]: 1430 nM | IC50 [2]: 501 nM | IC50 (NSD2 [1-1365]; [4]): 10 to 1000 nM

Nc1ncnc2c1ncn2Cc1cc(-c2cc(F)c(F)cc2C(F)F)ncc1N1CCC[C@](N)([C@H](O)C(F)F)C1 [Example 171, (S)-1-((R)-3-amino-1-(4-((6-amino-9H-purin-9-yl)methyl)-6-(2-(difluoromethyl)-4,5-difluorophenyl)pyridin-3-yl)piperidin-3-yl)-2,2-difluoroethan-1-ol]
IC50 ([1]; KMS11-Par line, 72 hours): 5520 nM | IC50 [2]: 886 nM | IC50 (NSD2 [1-1365]): 10 to 1000 nM
